Test results: ChEMBL document CHEMBL1201862, “PubChem BioAssay data set” (2004)
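Five concentrations, 48 hours, 96-well plates. GI50: concentration for 50% inhibition of growth.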 Active and inactive are the calls of the source. Cut-off read from the data, not from the text of the source: active = GI50 up to about 1.1 µM and inactive = higher.

How the values were obtained:
Experiment in all cases: inhibition of tumour cell growth, NCI panel, 48 h
KM12 = test system: KM12
EKVX = test system: EKVX
RXF 393 = test system: RXF 393
HL-60 = test system: HL-60
UACC-257 = test system: UACC-257
ACHN = test system: ACHN
A549 = test system: A549
CCRF-CEM = test system: CCRF-CEM
IGROV-1 = test system: IGROV-1
SF-539 = test system: SF-539
786-0 = test system: 786-0
TK-10 = test system: TK-10
HCT-116 = test system: HCT-116
HCT-15 = test system: HCT-15
LOX IMVI = test system: LOX IMVI
NCI-H226 = test system: NCI-H226
DU-145 = test system: DU-145
BT-549 = test system: BT-549

Compound	GI50 (KM12)	GI50 (EKVX)	GI50 (RXF 393)	GI50 (HL-60)	GI50 (UACC-257)	GI50 (ACHN)	GI50 (A549)	GI50 (CCRF-CEM)	GI50 (IGROV-1)	GI50 (SF-539)	GI50 (786-0)	GI50 (TK-10)	GI50 (HCT-116)	GI50 (HCT-15)	GI50 (LOX IMVI)	GI50 (NCI-H226)	GI50 (DU-145)	GI50 (BT-549)
CC(C)c1cccc(C(C)C)c1NC(=O)/C(Cc1nc2ccc(Cl)cc2nc1O)=N\NC(=O)C[N+](C)(C)C	> 100 µM (inactive)	4.22 µM (inactive)	> 100 µM (inactive)	> 100 µM (inactive)	> 100 µM (inactive)	> 100 µM (inactive)	> 100 µM (inactive)	> 100 µM (inactive)	> 100 µM (inactive)	> 100 µM (inactive)	> 100 µM (inactive)	> 100 µM (inactive)	> 100 µM (inactive)					
COc1cc(C(=O)OC2CC(C)=CC[C@@]3(C)CC[C@](O)(C(C)C)C23)ccc1O (stereo partly drawn)	15.9 µM (inactive)	18.9 µM (inactive)	18.4 µM (inactive)	31.6 µM (inactive)	15.5 µM (inactive)	18.4 µM (inactive)	12.9 µM (inactive)	26.3 µM (inactive)	19 µM (inactive)	14.1 µM (inactive)	17.3 µM (inactive)	15 µM (inactive)	19 µM (inactive)	18.6 µM	16.2 µM (inactive)	15.6 µM (inactive)	17.9 µM (inactive)	
COc1cccc(N2N=C3c4ccccc4-n4c(nc5ccccc54)C3C2N)c1 (stereo not drawn)	> 100 µM (inactive)	> 100 µM (inactive)		> 100 µM (inactive)	> 100 µM (inactive)	> 100 µM (inactive)	> 100 µM (inactive)		> 100 µM (inactive)	> 100 µM (inactive)	> 100 µM (inactive)	92.9 µM (inactive)	> 100 µM (inactive)	> 100 µM	> 100 µM (inactive)		> 100 µM (inactive)	> 100 µM (inactive)
O=C(c1ccccc1)c1ccc(N2C(=O)/C(=C/c3cccc(Oc4ccccc4)c3)N=C2c2ccccc2)c(N2C(=O)/C(=C/c3cccc(Oc4ccccc4)c3)N=C2c2ccccc2)c1	24.5 µM (inactive)	44.2 µM (inactive)	23.8 µM (inactive)	6.47 µM (inactive)	17.7 µM (inactive)	53 µM (inactive)	31.6 µM (inactive)	8.32 µM (inactive)	39.1 µM (inactive)		31.5 µM (inactive)	25.5 µM (inactive)	36.1 µM (inactive)	21.2 µM	32.9 µM (inactive)		46.5 µM (inactive)	24.7 µM (inactive)
COc1ccc(C2Oc3c(cccc3-c3c(-c4ccc(O)cc4)oc4cc(O)cc(O)c4c3=O)C(=O)C2O)cc1O (stereo not drawn)		> 100 µM (inactive)		> 100 µM (inactive)	> 100 µM (inactive)	> 100 µM (inactive)	> 100 µM (inactive)	> 100 µM (inactive)	> 100 µM (inactive)		> 100 µM (inactive)	> 100 µM (inactive)	> 100 µM (inactive)	> 100 µM		> 100 µM (inactive)	> 100 µM (inactive)	> 100 µM (inactive)
CC1=C(C#N)C(=C(C#N)C#N)OC1(C)Cc1ccccc1 (stereo not drawn)	55.5 µM (inactive)	45.9 µM (inactive)	17.6 µM (inactive)		49.4 µM (inactive)	18.5 µM (inactive)	56.8 µM (inactive)		51.3 µM (inactive)	64.7 µM (inactive)	41.7 µM (inactive)	36.4 µM (inactive)	36.7 µM (inactive)	23.3 µM	23.4 µM (inactive)	31.2 µM (inactive)	37 µM (inactive)	35.1 µM (inactive)
CCn1c(-c2ccccc2)nc2c1C(=O)c1ccccc1C2=O	22.7 µM (inactive)		15.6 µM (inactive)	18 µM (inactive)	3.85 µM (inactive)		28.4 µM (inactive)	18.4 µM (inactive)	19.3 µM (inactive)	32.4 µM (inactive)	84.9 µM (inactive)	36.2 µM (inactive)	21.7 µM (inactive)	17.1 µM		24.4 µM (inactive)	28.1 µM (inactive)	24.9 µM (inactive)
CCOC(=O)NN(C(=O)OCC)c1ccc(/N=N/c2ccc(OC)cc2)n1C	24 µM (inactive)	> 100 µM (inactive)	32.4 µM (inactive)	19.2 µM (inactive)	23.1 µM (inactive)	23.6 µM (inactive)	23 µM (inactive)		29 µM (inactive)	18.4 µM (inactive)	32.2 µM (inactive)	44.2 µM (inactive)	18.6 µM (inactive)	12.5 µM	21.5 µM (inactive)	26.2 µM (inactive)		
COc1ccc2c(c1)/C(=C\c1c(Cl)nc3sc(C)cn13)C(=O)N2	1.71 µM (inactive)	7.59 µM (inactive)	8.22 µM (inactive)	1.34 µM (inactive)	4.11 µM (inactive)	6.95 µM (inactive)	3.79 µM (inactive)	1.19 µM (inactive)	3.72 µM (inactive)	2.01 µM (inactive)	4.22 µM (inactive)	6.37 µM (inactive)	3.1 µM (inactive)	2.62 µM	4.22 µM (inactive)		5.74 µM (inactive)	5.21 µM (inactive)
